The results in this text go back to patent US4705805A, “Antithrombotic agent” (priority 1978, dated 1987).

Each structure is given as a SMILES string. ≈ marks a conversion by molar mass, not a printed value.

The test system of series [1] is rabbit blood platelets (platelet rich plasma), thrombin-induced aggregation. As to the kind of experiment: inhibition of platelet aggregation in rabbit platelet rich plasma (in vitro), induced by thrombin. The note with it: Oryctolagus cuniculus, rabbit PRP, read-out: percentage of inhibition, thrombin. Type of series: cell-based. On the procedure: In this example, the inhibition of platelet aggregation in rabbit platelet rich plasma (in vitro) is tested.
The thus obtained blood is centrifuged at 1,000 rpm for 15 minutes to obtain platelet rich plasma (referred to as "PRP" hereinafter). The aggregation of blood platelets is observed using an aggregometer (made by Bryston Co.) and the degree of aggregation after the addition of aggregation promoting substances is measured by nephelometry, i.e., through increase in light transmission.
The PRP (0.9 ml) is placed in a silicon-coated cuvett of the aggregometer. Then, 0.05 ml of physiological saline solution containing various concentrations of test reagents or control reagents is added and the mixture is allowed to stand for one minute. Compounds promoting aggregation are then added and the absorbancy of the solution is measured and the percent inhibition of aggregation is calculated according to the following equation: [formula] C: Transmittancy showing the maximum percent aggregation by physiological saline solution
D: Transmittancy showing the maximum percent aggregation by sample
Test for the inhibition of platelet aggregation induced by ADP, collagen and thrombin.

In series [2] the test system is mice, death by ADP injection. As to the kind of experiment: prevention of death of mice by ADP addition (in vivo), intravenous administration. Particulars: 10 mg/Kg, ADP-Na ten minutes thereafter. On the procedure: (§1) In this example, prevention of death of mice by ADP addition (in vivo) is tested. It is shown that intravenous administration of a great amount of ADP to mice causes aggregated blood platelets to be captured in the pulmonary capillaries so that the mice die of respiratory distress.
In order to check the effect by intravenous administration, physiological saline solution and physiological saline solution containing the test reagents (0.5 mg/ml) is injected into the tail vein in a volume of 0.2 ml/10 g (body weight). Ten minutes thereafter (10 mg/kg) ADP-Na is injected into the tail vein as in the oral test, and the mortality is calculated.

The subject of series [3] is rabbit blood platelets (platelet rich plasma), collagen-induced aggregation. As to the kind of experiment: inhibition of platelet aggregation in rabbit platelet rich plasma (in vitro), induced by collagen. It is filed as cell-based. Particulars: Oryctolagus cuniculus, Platelet, rabbit PRP. An outline of the steps:
(§2)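 PRP from citrated rabbit carotid blood (1,000 rpm, 15 min) preincubated 1 min with test compound in saline before ADP or collagen is added. Aggregation followed by light transmission in an aggregometer; % inhibition derived from maximum aggregation with sample versus saline.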

A short description of the next series: solubility. It is filed as physicochemical.
In series [4] the test system is human platelet rich plasma, ADP-induced aggregation. As to the kind of experiment: inhibition of platelet aggregation in human platelet rich plasma, induced by ADP. It is filed as cell-based. Particulars: human PRP, read-out: percentage inhibition, ADP. In short, it runs like this: (§3)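 Human platelet-rich plasma (citrated blood, spun 1,000 rpm 15 min) preincubated 1 min with test compound in saline, then challenged with collagen or ADP. Aggregation followed by light transmission in an aggregometer; % inhibition from maximal aggregation versus saline control.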

For series [5], the system named is human platelet rich plasma, collagen-induced aggregation. As to the kind of experiment: inhibition of platelet aggregation in human platelet rich plasma, induced by collagen. It is filed as cell-based. The note with it: human PRP, read-out: percentage inhibition, collagen. In short, it runs like this:
as §3

The test system of series [6] is mice, death by ADP injection. Put plainly: prevention of death of mice by ADP addition (in vivo), oral administration. Particulars: oral; 100 mg/Kg; ADP i.v. after one hour. On the procedure:
as §1
The test is carried out according to Roba's method. [Eur. J. Pharmacol. 37, 265-274 (1976)]. Specifically, CMC solution (0.3%) and CMC suspension containing the test compound and control compounds are orally administered to mice in a ratio of 0.1 ml/10 g (body weight). After one hour, an aqueous solution of ADP (60 mg/ml) is injected into the tail vein in a volume of 0.1 ml/10 g (body weight) every 10 seconds and the mortality is calculated.

For series [7], the system named is rabbit blood platelets (platelet rich plasma), ADP-induced aggregation. As to the kind of experiment: inhibition of platelet aggregation in rabbit platelet rich plasma (in vitro), induced by ADP. It is filed as cell-based. Particulars: Oryctolagus cuniculus, Platelet, rabbit PRP, ADP 10^-5 M. In short, it runs like this:
as §2

Series [8] can be described thus: acute toxicity, Behrens-Karber's method. Particulars: in vivo; mouse, oral. Type of series: in vivo. On the procedure: In this example, the acute toxicity of compounds of the invention is determined by Behrens-Karber's method using, 5 male dd-strain for each group weighing 20±1 g. A 0.3% CMC suspension of the test compound (concentration of the test compound: 100 mg/ml) is then orally administered to each mouse.

For the compound `O=C(c1ccccc1SSc1ccccc1C(=O)N1CCN(Cc2ccccc2)CC1)N1CCN(Cc2ccccc2)CC1` [Compound IV, 2,2'-dithiobis(N'-benzylbenzpiperazide)], the inhibition at 3 µg/mL came to 31% in series [1] (3 μg/ml); 7.6% in series [3] (3 μg/ml, read-out: percentage of inhibition, collagen); 28% in [7] (3 μg/ml, read-out: percentage of inhibition, ADP). Moreover, the inhibition at 10 µg/mL was found to be 58% in series [1] (10 μg/ml); 46.5% in series [3] (10 μg/ml, read-out: percentage of inhibition, collagen); 44.7% in [7] (10 μg/ml, read-out: percentage of inhibition, ADP). Besides, the inhibition at 30 µg/mL amounted to 84% in series [1] (30 μg/ml); 100% in [3] (30 μg/ml, read-out: percentage of inhibition, collagen); 0% in [4] (30 μg/ml); 12% in [5] (30 μg/ml); 83.3% in [7] (30 μg/ml, read-out: percentage of inhibition, ADP). The Mortality in [2] was 50%; in [6], 30%. Also, the “Score (mortality)” value is 5/10 in series [2] and 3/10 in series [6]. The IC50 in [3] and in series [7] was 9.8 µg/mL (≈ 15.7 µM) in each case. In addition, in the series “solubility” (ether, benzene, chloroform, and the like), the “Solubility in ether, benzene, chloroform” value was “Insoluble”. For the same compound, in the series “solubility” (methanol, ethanol, and the like), the “Solubility in methanol, ethanol” value is listed as “slightly soluble”. The Solubility in water entry in the series “solubility” (water, etc.) is “Readily soluble”. Further, the inhibition at 100 µg/mL is 58% in series [4] (100 μg/ml) and 75% in [5] (100 μg/ml). The compound further returned an LD50 in series [8] not below 4000 mg/kg.
